Among the test systems are LXFL 529 NSCLC; XF 498 CNS; SNB-78 CNS; M19-MEL melanoma; DMS 273 small cell lung; P388/ADR leukemia; P388 leukemia; SN12K1 renal; RXF-631 renal.
Holding throughout (test): NCI tumour cell line growth inhibition, 48 h

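Grown in 96-well plates, cells were treated for 48 hours with each compound at five concentrations. Insufficient inhibition: endpoint recorded as highest concentration tested. TGI denotes the concentration required for complete inhibition of growth.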 A value given as a limit tells only on which side of the number the result lay.

For `O=C(Nc1nn[nH]n1)c1nc(-c2ccccc2)cc(=O)[nH]1`, the TGI with LXFL 529 NSCLC, in the assay with XF 498 CNS, with SNB-78 CNS and in the assay on M19-MEL melanoma was above 100 µM throughout.
With `C=C1C(C)C2C(Cc3ccccc3)NC(=O)C23OC(=O)/C=C\CC(=O)CCC(C)C/C=C/C3C1O` (stereo unspecified), the TGI with DMS 273 small cell lung was found to be 14.1 µM; with P388/ADR leukemia, 2.1 µM; in the assay on P388 leukemia it was 0.385 µM; with XF 498 CNS, 1.07 µM; in the assay on SN12K1 renal it was 3.43 µM; in the assay with SNB-78 CNS, 2.08 µM. In the assay with M19-MEL melanoma, the TGI was 12.5 µM.
For `CCCCN(C)/N=N/c1nc[nH]c1C(N)=O`, the TGI in the assay on DMS 273 small cell lung is above 100 µM; with P388/ADR leukemia, above 100 µM; in the assay with P388 leukemia, above 100 µM; in the assay on XF 498 CNS it was 95.5 µM; with SN12K1 renal, above 100 µM; in the assay on SNB-78 CNS, above 100 µM. For the same compound, in the assay on M19-MEL melanoma, the TGI is above 100 µM.
In the case of `O=c1c2ccccc2nc2ccc3c(Cl)[nH][nH]c3c12`, the TGI in the assay on DMS 273 small cell lung, in the assay with LXFL 529 NSCLC, in the assay with SNB-78 CNS, in the assay on M19-MEL melanoma and with RXF-631 renal was above 100 µM throughout.
For `O=C1C2C=CC(n3[nH]c(=O)n(Cc4ccccc4)c3=O)CC2C(=O)N1c1ccc(Br)cc1` (stereo unspecified), the TGI with DMS 273 small cell lung, with LXFL 529 NSCLC, in the assay on SNB-78 CNS and in the assay with M19-MEL melanoma was above 100 µM in each case.
With `COc1ccc(Oc2ccccc2N)cc1`, the TGI in the assay with DMS 273 small cell lung, with LXFL 529 NSCLC, in the assay on SNB-78 CNS, in the assay with M19-MEL melanoma and in the assay with RXF-631 renal was above 100 µM in each case.
Consider `CCOC(=O)C1=C(O)c2ccc(C)cc2C(=O)C1=O`, for which the TGI was above 100 µM with DMS 273 small cell lung, above 100 µM with XF 498 CNS, above 100 µM in the assay with SNB-78 CNS and 32.3 µM with M19-MEL melanoma.
Take `[N-]=[N+]=NCC(O)Cn1cnc2c(NC(=O)c3ccccc3)ncnc21` (stereo unspecified): the TGI in the assay with DMS 273 small cell lung, in the assay with LXFL 529 NSCLC, in the assay with XF 498 CNS, in the assay on SNB-78 CNS and in the assay on M19-MEL melanoma was above 100 µM throughout.
Regarding `Nc1c(S(=O)(=O)O)cc(S(=O)(=O)O)c2ccc(N=Nc3ccc(/C=C/c4ccc(N=Nc5ccc6c(S(=O)(=O)O)cc(S(=O)(=O)O)c(N)c6c5O)cc4S(=O)(=O)O)c(S(=O)(=O)O)c3)c(O)c12`, the TGI in the assay with DMS 273 small cell lung is above 100 µM; with P388 leukemia, above 100 µM; in the assay on XF 498 CNS, above 92.9 µM; in the assay on SN12K1 renal, above 100 µM; in the assay with SNB-78 CNS, above 100 µM; in the assay with M19-MEL melanoma, above 100 µM.
For `CC1(C)O[C@@H](C[C@]2(C#N)C[C@H](CCl)OC(C)(C)O2)C[C@@H](C#N)O1`, the TGI in the assay with DMS 273 small cell lung, in the assay with XF 498 CNS, with SNB-78 CNS and with M19-MEL melanoma was above 100 µM in each case.
Turning to `N/C(=N\N=C\c1ncccc1O)NO`, the TGI was above 59.4 µM with DMS 273 small cell lung; 11.5 µM in the assay on P388/ADR leukemia; 12.8 µM in the assay with P388 leukemia; 69.2 µM in the assay with XF 498 CNS; above 69 µM with SN12K1 renal; above 100 µM with SNB-78 CNS. The TGI in the assay with M19-MEL melanoma was above 78.6 µM.
On to `CSc1cnc2ccccc2c1Sc1c[nH]c2ccccc2c1=O`, for which the TGI in the assay on DMS 273 small cell lung was above 45.5 µM; in the assay with LXFL 529 NSCLC, 46.3 µM; in the assay on SNB-78 CNS, above 100 µM; with M19-MEL melanoma, 34.6 µM.
On to `COc1ccc(C)cc(=O)c1O`, for which the TGI in the assay with DMS 273 small cell lung, in the assay with LXFL 529 NSCLC, in the assay with SNB-78 CNS and in the assay on M19-MEL melanoma was above 100 µM each time.

The record behind these values is PubChem BioAssay (NCI).
